From paper PMC4454681, “Design and Evaluation of Antimalarial Peptides Derived from Prediction of Short Linear Motifs in Proteins Related to Erythrocyte Invasion” (PLoS ONE, 2015)
“Also recorded” adds a separate entry of the source. Where a SMILES comes first, the peptide text is derived from it. The star is where a group is joined. Palmitoyl = CCCCCCCCCCCCCCCC(=O)*

Experiments:
[1] = tested on: 3D7 line of P. falciparum; experiment: Peptide inhibition of parasite growth (pLDH method); format: cell-based, Plasmodium falciparum; conditions: for Growth inhibition: 100 μM peptide, 48 hour and 72 hour time points, asynchronous cultures, 2% haematocrit, 0.8% initial parasitaemia, max 0.5% DMSO, pLDH activity; for Growth inhibition / Concentration-response relationship of growth inhibition / Growth inhibition (dose-response curves): means of three experiments in duplicate; for Concentration-response relationship of growth inhibition: ten concentrations between 10 μM and 100 μM; for Concentration-response relationship of growth inhibition / Growth inhibition (dose-response curves): 48 and 72 hours
Description: P. falciparum line 3D7, adapted to grow in Albumax® (BioSciences, Dun Laoghaire, Ireland), was cultured in human erythrocytes (Irish Blood Transfusion Board, Ireland) in standard growth medium, in candle jars. Fresh erythrocytes were obtained every three weeks and washed according to lab protocols. Staining of blood smears was with Giemsa stain. The number of infected erythrocytes was counted by microscopy and the parasitaemia was calculated.
The antimalarial activity of test peptides (ChinaPeptides Co. Ltd, Shanghai, China) was determined in culture on the 3D7 line of P. falciparum using the parasite lactate dehydrogenase (pLDH) method in 96-well microtitre plates with modifications as previously described. Each test peptide was initially evaluated at three different concentrations, 100 μM, 10 μM and 1 μM, to determine activity range. The effect of the compounds was evaluated at 48 and 72 hours on growth of asynchronous cultures (cultured as described in the previous section) of P. falciparum, determined by the assay of pLDH activity. We used unsynchronised cultures in order (i) to make no prior assumptions about the stage of growth that might be inhibited and (ii) to avoid possible inhibitory effects of the synchronising protocol, e.g. sorbitol treatment, separation techniques, etc. The appropriate dilutions of the compounds were prepared in DMSO and added to the cultures of P. falciparum (2% haematocrit, 0.8% initial parasitaemia and a maximum of 0.5% DMSO). The same methodology was then used to assess the dose-response curves of peptides 5, 7, 10, 11, 12, 13 using ten concentrations between 10 μM and 100 μM.

[2] = tested on: P. falciparum late stages (trophozoite/schizont) introduced to fresh erythrocytes; experiment: Schizont to ring development assay; format: cell-based, Plasmodium falciparum; conditions: 100 μM peptide, 2 hours with magnetically purified schizonts, washed, fresh erythrocytes 14–16 hours; rings counted in Giemsa smears; two experiments in triplicate
Description: Routine erythrocytic P. falciparum cultures are an asynchronous culture consisting of rings, trophozoites, schizonts and merozoites. To enrich for the late stages of erythrocytic development, parasites at high parasitaemia (>15%) were subjected to magnetic selection. Parasitised erythrocytes were passed over a CS column (Miltenyi Biotec, Surrey, UK) which was mounted on a VarioMacs magnet (Miltenyi Biotec, Surrey, UK). The column was then washed with incomplete medium (RPMI 1640 supplemented with 25 mM HEPES, hypoxanthine [50 μg/ml], 0.16% w/v glucose) to remove unparasitised erythrocytes and was then removed from the magnet, a further wash with incomplete medium eluting late-stage parasitised erythrocytes.
Parasites synchronised to late stages (trophozoite/schizont) by magnetic selection were incubated with either the peptide being tested (100 μM concentration) or vehicle only control (DMSO) in complete medium for two hours. Treated schizonts were washed with complete medium and centrifugation at 350 xg for 10 minutes. Washing was repeated twice. Treated schizonts were then introduced to fresh erythrocytes at 2.5% hematocrit and incubated overnight (14–16 hours) with shaking. Parasitaemia was assessed by counting the number of ring stages in parasitised erythrocytes in Giemsa stained blood smears by light microscopy. This crude assay measures not just invasion but merozoite release and early ring-stage development.

[3] = tested on: erythrocytes from healthy human volunteers; conditions: 100 μM peptide; approx. 1.5 × 10^8 erythrocytes, 15 minutes at 37°C, buffer A pH 7.4; absorbance 405 nm; compared with 0.1% (v/v) Triton X-100 = 100%; duplicate, three donors
Description: The hemolytic activity of the peptides was investigated using erythrocytes from healthy human volunteers. Blood was collected in the presence of 15% anticoagulant acid citrate glucose (ACD) (38 mM citric acid, 75 mM sodium citrate, 124 mM glucose) and was centrifuged at 150 xg for 10 minutes at room temperature. Plasma was removed and erythrocytes were washed twice with buffer A (pH 7.4) (130 mM sodium chloride, 10 mM sodium citrate, 9 mM sodium biocarbonate, 6 mM glucose, 0.9 mM magnesium chloride, 0.81 mM potassium hydrogen phosphate, 10 mM Tris), by cenrifugation at 1,000 xg for 5 minutes and resuspended in the same buffer. For the hemolysis assay approximately 1.5 × 10^8 erythrocytes were incubated with solutions of peptides 5, 10 or 12-Cam at 100 μM and 10 μM concentrations for 15 minutes at 37°C. After incubation, samples were centrifuged at 1,000 xg for 5 minutes and the supernatant was analysed for the presence of hemoglobin at an absorbance of 405 nm. Complete hemolysis was achieved using 0.1% (v/v) Triton X-100 yielding the 100% control value. The assay was run in duplicate with three different donors.

[4] = reason for exclusion from further investigation

Compound	Growth inhibition [1]	Concentration-response relationship of growth inhibition [1]	other results
CCCCCCCCCCCCCCCC(=O)O [Palmitate, reference compound]	no inhibitory effect	–	–
CCCCCCCCCCCCCCCC(=O)N[C@@H](CO)C(=O)N[C@@H](CO)C(=O)N[C@@H](CO)C(=O)N[C@@H](CCCNC(=N)N)C(=O)N[C@@H](CCCCN)C(=O)N[C@@H](CC(N)=O)C(=O)N[C@@H](CCCNC(=N)N)C(=O)N[C@@H](Cc1ccccc1)C(=O)N[C@@H](CCCNC(=N)N)C(=O)N[C@@H](Cc1ccc(O)cc1)C(=O)N[C@@H](CC(C)C)C(=O)N1CCC[C@H]1C(=O)N[C@@H](Cc1ccccc1)C(N)=O [Peptide 5] (Palmitoyl-SSSRKNRFRYLPF-NH2)	clearly observed	clear increases in growth inhibition with increasing concentration	Ability of merozoites to establish new infections in fresh erythrocytes (ring parasitaemia, % of control) [2]: almost totally reduced
CCCCCCCCCCCCCCCC(=O)N[C@@H](CCCNC(=N)N)C(=O)N[C@@H](CCCNC(=N)N)C(=O)N[C@@H](CC(C)C)C(=O)N[C@H](C(=O)N[C@@H](CCCCN)C(=O)N[C@@H](CCCCN)C(=O)N[C@@H](CO)C(=O)N1CCC[C@H]1C(N)=O)[C@@H](C)CC [Peptide 10] (Palmitoyl-RRLIKKSP-NH2)	clearly observed	clear increases in growth inhibition with increasing concentration	Ability of merozoites to establish new infections in fresh erythrocytes (ring parasitaemia, % of control) [2]: not as significant as that of the other two peptides; Release of haemoglobin from erythrocytes [3]: approximately 50%
CCCCCCCCCCCCCCCC(=O)N[C@@H](CO)C(=O)N[C@@H](Cc1ccc(O)cc1)C(=O)N[C@H](C(=O)N[C@H](C(=O)N[C@@H](CCCNC(=N)N)C(=O)N[C@@H](CCCNC(=N)N)C(=O)N[C@@H](CC(C)C)C(=O)N[C@H](C(=O)N[C@@H](CCCCN)C(=O)N[C@@H](C)C(N)=O)[C@@H](C)CC)[C@@H](C)CC)[C@@H](C)O [Peptide 12-Cam] (Palmitoyl-SYTIRRLIKA-NH2)	–	–	Growth inhibition of amidated peptide 12 versus its scrambled versions ([1]; 10 μM, 48 and 72 hours (Fig 4), three experiments in duplicate): more active than four scrambled controls
pal-AALQEPALQDAGESSRKEYFI [glycophorin-C peptide, palmitoylated peptide from glycophorin-C, preliminary testing only]	–	–	Activity in preliminary testing ([1]; preliminary testing, no further tests conducted): no activity
pal-KEEIIEIVFDENEEKYF [Peptide 7]	some growth inhibition; also recorded: moderate activity	–	Growth inhibition (dose-response curves) ([1]; 10 μM): no inhibition
pal-KHRKGNNA-NH2 [Peptide 13, palmitoylated, amidated peptide from complement receptor type 1]	some growth inhibition; also recorded: moderate activity	–	Growth inhibition (dose-response curves) ([1]; 10 μM): no inhibition
pal-KKKLYLYFE-NH2 [Peptide 3, shorter variation of peptide 2 from putative protein kinase Q8ILC4]	some growth inhibition	–	Solubility [4]: insolubility
pal-KRKLKEEQRTKKIKID [Peptide 4, palmitoylated peptide from putative calcium-transporting ATPase Q76NN8]	–	–	Antimalarial activity (overall, growth inhibition assay) ([1]; tested at 100 μM, 10 μM and 1 μM): inactive
pal-SYSIRRLIKA [Peptide 11, palmitoylated peptide from glycophorin-B]	some growth inhibition	no such clear effect	–
pal-SYTIRRLIKA [Peptide 12, palmitoylated peptide from glycophorin-B, common human polymorphism of peptide 11]	clearly observed	clear increases in growth inhibition with increasing concentration	Ability of merozoites to establish new infections in fresh erythrocytes (ring parasitaemia, % of control) [2]: almost totally reduced
